# In patent publication US8088951B2, “Epigenetic mechanisms re-establish access to long-term memory after neuronal loss” (Massachusetts Institute of Technology, priority 2006, dated 2012):
# What was measured:
# Format in all cases: in vivo
# CK-p25 Tg mice = assay: Recovery of long-term fear memories in CK-p25 Tg mice; settings: CK-p25 Tg mice trained, 4 weeks rest, 6 weeks p25, then 1.2 g/kg daily for 4 weeks; P=0.0496
# Description: The effect of HDAC inhibition on the recovery of inaccessible long-term memories was evaluated. Eleven month old CK-p25 Tg mice were trained in the fear conditioning paradigm and returned to their home cages for 4 weeks. Subsequently p25 was induced for 6 weeks before the mice were injected with either saline (vehicle, n=12) or SB (1.2 g/kg, n=14) for 4 weeks (daily). […] (FIG. 4f). […] Thus chronic injection of SB led to the recovery of memories in CK-p25 Tg mice that had developed severe neuronal loss.
# C57BL/6J mice [1] = assay: Water maze paradigm (spatial learning) in wild type mice; settings: daily ip for 4 weeks; vs vehicle group; P<0.0001
# Excerpt: (§1) Learning tests: All behavioral testing is described in Fischer et al. (3).
# Mechanism underlying EE. Other than a few genes involved in synaptic function, relatively little is known about the mechanism underlying EE (12-14). Since histone acetylation, an epigenetic mechanism regulating gene expression via chromatin remodeling, has recently been implicated in synaptic plasticity and learning behavior (15-18), the induction of a transcriptional program by EE that leads to activation of plasticity genes was evaluated. Wild type mice were subjected to EE and hippocampal and cortical brain lysates were obtained 3, 24 h or 2 weeks later (n=3/group) by acid extraction and probed with antibodies detecting histone-tail modification that indicate active chromatin. Increases in hippocampal H3 (K-9, K14) and H4 (K-5) and in cortical H3 (K-9) and H4 (K-5) acetylation were observed. […] No changes in H4 acetylation were observed when the Ac-H4 (K,8,12,16) antibody was used, which is likely due to the fact that H4-K16 is a marker of condensed chromatin. EE induced hippocampal and cortical histone 3 (H3) and histone 4 (H4) acetylation and methylation as soon as 3 hours after treatment (FIGS. 3a, b). […]
# The over expression of HDAC2 impairs spatial learning. […] The swimming path of the mice was recorded by a video camera and analyzed by the Videomot 2 software (TSE). […]
# C57BL/6J mice [2] = assay: Contextual fear conditioning (associative learning) in wild type mice; settings: for freezing behavior during the memory test: test 24 h later
# Excerpt: as §1
# Mechanism underlying EE. Other than a few genes involved in synaptic function, relatively little is known about the mechanism underlying EE (12-14). Since histone acetylation, an epigenetic mechanism regulating gene expression via chromatin remodeling, has recently been implicated in synaptic plasticity and learning behavior (15-18), the induction of a transcriptional program by EE that leads to activation of plasticity genes was evaluated. Wild type mice were subjected to EE and hippocampal and cortical brain lysates were obtained 3, 24 h or 2 weeks later (n=3/group) by acid extraction and probed with antibodies detecting histone-tail modification that indicate active chromatin. Increases in hippocampal H3 (K-9, K14) and H4 (K-5) and in cortical H3 (K-9) and H4 (K-5) acetylation were observed. […] No changes in H4 acetylation were observed when the Ac-H4 (K,8,12,16) antibody was used, which is likely due to the fact that H4-K16 is a marker of condensed chromatin. EE induced hippocampal and cortical histone 3 (H3) and histone 4 (H4) acetylation and […] as soon as 3 hours after treatment (FIGS. 3a, b). […] To investigate whether inhibition of HDACs mimics the effects of EE, SB was administered daily [ip] into wild type mice for 4 weeks (FIG. 3c). […] Two days after the last injection mice were trained in the fear conditioning paradigm. […] Locomotor activity or basal anxiety was not altered in SB-injected mice (FIG. 8c).
# The effect of sodiumbutyrate injection on learning, basal anxiety, explorative behavior and brain plasticity. C57BL/6J mice were subjected to fear conditioning and injected intraperitoneally [ip] with 1.2 g/kg sodiumbutyrate (SB, n=8) or saline (vehicle; n=8) immediately afterwards. […] C57BL/6J mice were implanted with microcannulae into the lateral brain ventricles (icv) and injected with either 100 ng SB, 50 ng TSA or vehicle immediately after fear conditioning (n=8/group). […] C57BL/6J were daily injected [ip] with SB or saline (n=8/group) for 4 weeks before all mice were subjected to the elevated plus maze and open field test. […] Immunoblots were quantified relative to the optical density of the vehicle-group (set to 1). […] The analysis was performed as described under FIG. 1g.
# The effects of SAHA and MS-275, relative to sodium butyrate (SB), on the hippocampus dependent associative learning in wildtype mice.
# Mice were injected 10 days with either 5 mg/kg of MS275 or 25 mg/kg of UW_WT-I—06 or UW_WT-I—05 before training and memory tests as described above. […] Andorfer, C. et al. Cell-cycle reentry and cell death in transgenic mice expressing nonmutant human tau isoforms. J neurosci 25, 5446-5454 (2005). • 2. Santacruz, K. et al. Tau suppression in a neurodegenerative mouse model improves memory function. Science 309, 476-481 (2005). • 3. Fischer, A., Sananbenesi, F., Pang, P. T., Lu, B. & Tsai, L. H. Opposing roles of transient and prolonged expression of p25 in synaptic plasticity and hippocampus-dependent memory. Neuron 48, 825-838 (2005). • 4. Cruz, J. C. & Tsai, L. H. Jekyll and Hyde kinase: roles for Cdk5 in brain development and disease. Curr Opin Neurobiol. 14, 390-394 (2004). • 5. Cruz, J. C., Tseng, H. C., Goldman, J. A., Shih, H. & Tsai, L. H. Aberrant Cdk5 activation by p25 triggers pathological events leading to neurodegeneration and neurofibrillary tangles. Neuron 40, 471-83 (2003). • 6. Nithianantharajah, J. & Hannan, A. J. Enriched environments, experience-dependent plasticity and disorders of the nervous system. Nat Rev Neurosci 7, 697-709 (2006). • 7. Kim, J. J. & Fanselow, M. S. Modality-specific retrograde amnesia of fear. Science 256, 675-7 (1992). • 8. Gilmore, E. C. & Herrup, K. Neocortical cell migration: GABAergic neurons and cells in layers I and VI move in a cyclin-dependent kinase 5-independent manner. J Neurosci 21, 9690-700 (2001). • 9. […]
smiles,measurement,setting,value
"CCCC(=O)[O-].[Na+] [SB, sodiumbutyrate]",freezing behavior in long-term memory test,CK-p25 Tg mice,performed significantly better than vehicle injected CK-p25 Tg mice
same,escape latency in water maze paradigm,C57BL/6J mice [1],shorter escape latency
same,freezing during the memory test,"C57BL/6J mice [2]; daily ip 1.2 g/kg for 4 weeks, trained two days after last injection, tested 24 h later, P<0.0001",more freezing during the memory test
same,freezing behavior during the memory test,"C57BL/6J mice [2]; icv 100 ng SB or 50 ng TSA immediately after fear conditioning, P<0.0001",more freezing behavior than vehicle injected mice
same,freezing behavior during the memory test,"C57BL/6J mice [2]; single ip 1.2 g/kg immediately after fear conditioning, P<0.0001",significantly more freezing behavior
same,associative learning,"C57BL/6J mice [2]; wild type mice, intraperitoneal [ip] and intracerebroventricular [icv] injections",significantly facilitated associative learning
same,"associative learning, contextual fear conditioning paradigm","C57BL/6J mice [2]; wildtype mice, chronic treatment for 10-21 days",facilitates contextual fear conditioning learning
